Experiments:
Details in all cases: 48 h
NOMO1 [1] = experiment: AUC of viability dose-response curve (% viability x log10 dose units); higher = less sensitive
Method in brief: (§1)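 Over 48 h at 37°C, leukemia cells in 1536-well plates (500 or 1000 cells/well), adapted to each medium, received library compounds in DMSO at 11 threefold doses from 47 μM to 0.79 nM. CellTiter-Glo One luminescence, normalised per plate to DMSO and cell-free wells, was fitted by a four-parameter log-logistic function of log10 dose. The area under the curve was then integrated by trapezoidal rule, after scaling curves above full viability and removing those that failed quality control.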

P12-Ichikawa [2] = experiment: as above
Method in brief: as §1

SEM cells [3] = experiment: as above
Method in brief: as §1

SEM cells [4] = experiment: cell viability relative to DMSO control; higher = less cytotoxic
Method in brief: (§2)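 Viability is a per-plate percentage relative to DMSO wells, with cell-free wells as background. CellTiter-Glo One luminescence was read after 48 h at 37°C on 1536-well plates (5 μl) of NOMO1 or SEM (500 cells/well) or P12-Ichikawa (1000 cells/well) leukemia cells. The cells had been adapted for at least four passages in each medium and pin-dosed with library compounds in DMSO from 47 μM to 0.79 nM in 11 threefold steps.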

NOMO1 [5] = experiment: as above
Method in brief: as §2

P12-Ichikawa [6] = experiment: as above
Method in brief: as §2

C[C@@H]1C(=O)O[C@H]2CC34[C@H]5C[C@@H](C(C)(C)C)C36[C@@H](OC(=O)[C@@H]6O)O[C@@]4(C(=O)O5)[C@]21O (stereo not given in full)
AUC of viability dose-response curve
Details	NOMO1 [1]	P12-Ichikawa [2]	SEM cells [3]
HPLM + 10% dialyzed FBS	431	447	465
RPMI 5 mM glucose + 10% FBS	460	462	467
RPMI 5 mM glucose + 10% dialyzed FBS	463	462	456

O=C1N(c2ccccc2)c2ccccc2C1(Cc1ccncc1)Cc1ccncc1
SEM cells [4], RPMI 5 mM glucose + 10% FBS
Details	cell viability [%]
0.000781 µM	84.9
0.00234 µM	115
0.00702 µM	133
0.0211 µM	148
0.0632 µM	129
0.19 µM	43.9
0.569 µM	137
1.71 µM	94.4
5.12 µM	88.3
15.4 µM	108
46.1 µM	152

AUC of viability dose-response curve
Details	HPLM + 10% dialyzed FBS	RPMI 5 mM glucose + 10% FBS	RPMI 5 mM glucose + 10% dialyzed FBS
NOMO1 [1]	462	473	465
P12-Ichikawa [2]	446	437	424

Nc1ccc(C(=O)Nc2cccc(-c3nc(N4CCOCC4)c4oc5ncccc5c4n3)c2)cn1
cell viability [%]
Details	NOMO1 [5]	P12-Ichikawa [6]	SEM cells [4]
HPLM + 10% dialyzed FBS, 0.000781 µM	122	125	119
HPLM + 10% dialyzed FBS, 0.00234 µM	118	122	120
HPLM + 10% dialyzed FBS, 0.00702 µM	135	125	130
HPLM + 10% dialyzed FBS, 0.0211 µM	121	121	113
HPLM + 10% dialyzed FBS, 0.0632 µM	115	120	115
HPLM + 10% dialyzed FBS, 0.19 µM	122	127	107
HPLM + 10% dialyzed FBS, 0.569 µM	128	120	96.3
HPLM + 10% dialyzed FBS, 1.71 µM	98.8	124	116
HPLM + 10% dialyzed FBS, 5.12 µM	67.7	97.3	90.1
HPLM + 10% dialyzed FBS, 15.4 µM	74.5	100	85.8
HPLM + 10% dialyzed FBS, 46.1 µM	49.3	87.8	4.82
RPMI 5 mM glucose + 10% FBS, 0.000781 µM	118	118	88
RPMI 5 mM glucose + 10% FBS, 0.00234 µM	123	119	80.1
RPMI 5 mM glucose + 10% FBS, 0.00702 µM	129	115	71.8
RPMI 5 mM glucose + 10% FBS, 0.0211 µM	104	114	75.2
RPMI 5 mM glucose + 10% FBS, 0.0632 µM	118	124	83.9
RPMI 5 mM glucose + 10% FBS, 0.19 µM	110	112	68.1
RPMI 5 mM glucose + 10% FBS, 0.569 µM	115	103	71.7
RPMI 5 mM glucose + 10% FBS, 1.71 µM	108	101	77.4
RPMI 5 mM glucose + 10% FBS, 5.12 µM	82.8	81.5	57.9
RPMI 5 mM glucose + 10% FBS, 15.4 µM	83.4	94.7	38.9
RPMI 5 mM glucose + 10% FBS, 46.1 µM	91	77.2	3.46
RPMI 5 mM glucose + 10% dialyzed FBS, 0.000781 µM	115	–	129
RPMI 5 mM glucose + 10% dialyzed FBS, 0.00234 µM	124	–	119
RPMI 5 mM glucose + 10% dialyzed FBS, 0.00702 µM	107	–	116
RPMI 5 mM glucose + 10% dialyzed FBS, 0.0211 µM	113	–	111
RPMI 5 mM glucose + 10% dialyzed FBS, 0.0632 µM	110	–	114
RPMI 5 mM glucose + 10% dialyzed FBS, 0.19 µM	119	–	102
RPMI 5 mM glucose + 10% dialyzed FBS, 0.569 µM	91	–	104
RPMI 5 mM glucose + 10% dialyzed FBS, 1.71 µM	84.9	–	107
RPMI 5 mM glucose + 10% dialyzed FBS, 5.12 µM	65	–	79.1
RPMI 5 mM glucose + 10% dialyzed FBS, 15.4 µM	73.7	–	64
RPMI 5 mM glucose + 10% dialyzed FBS, 46.1 µM	61.5	–	5.84

AUC of viability dose-response curve
Details	HPLM + 10% dialyzed FBS	RPMI 5 mM glucose + 10% FBS	RPMI 5 mM glucose + 10% dialyzed FBS
NOMO1 [1]	410	442	403
P12-Ichikawa [2]	450	428	430

Source: the supplement of paper PMC11451515
